Measurements taken from PubChem BioAssay (NCI).
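Cells were grown in 96-well plates and exposed to each compound for 48 hours at five concentrations; endpoints were interpolated linearly between bracketing concentrations, or set to the highest concentration if not reached. TGI is the concentration that stops growth completely.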

Columns and labels:
Assay in all cases: DTP human tumour cell line panel, 48 h
NCI-H460 lung = tested on: NCI-H460 lung
HOP-62 NSCLC = tested on: HOP-62 NSCLC
ACHN renal = tested on: ACHN renal
HCT-15 colon = tested on: HCT-15 colon
T-47D breast = tested on: T-47D breast
SNB-75 CNS = tested on: SNB-75 CNS
SF-295 CNS = tested on: SF-295 CNS
UACC-257 melanoma = tested on: UACC-257 melanoma
786-0 renal = tested on: 786-0 renal
MOLT-4 leukemia = tested on: MOLT-4 leukemia
COLO 205 colon = tested on: COLO 205 colon
SK-OV-3 ovarian = tested on: SK-OV-3 ovarian
NCI-H23 lung = tested on: NCI-H23 lung
TK-10 renal = tested on: TK-10 renal
NCI/ADR-RES ovarian = tested on: NCI/ADR-RES ovarian
A549 NSCLC = tested on: A549 NSCLC
OVCAR-4 ovarian = tested on: OVCAR-4 ovarian
OVCAR-5 ovarian = tested on: OVCAR-5 ovarian
SF-268 CNS = tested on: SF-268 CNS
SNB-19 CNS = tested on: SNB-19 CNS
SF-539 CNS = tested on: SF-539 CNS
MALME-3M melanoma = tested on: MALME-3M melanoma
HCT-116 colon = tested on: HCT-116 colon
BT-549 breast = tested on: BT-549 breast
MDA-MB-231 breast = tested on: MDA-MB-231 breast
SW-620 colon = tested on: SW-620 colon
MDA-N = tested on: MDA-N
A498 renal = tested on: A498 renal
SK-MEL-5 melanoma = tested on: SK-MEL-5 melanoma
RPMI-8226 leukemia = tested on: RPMI-8226 leukemia
SK-MEL-28 melanoma = tested on: SK-MEL-28 melanoma
NCI-H226 lung = tested on: NCI-H226 lung
NCI-H522 lung = tested on: NCI-H522 lung
MDA-MB-435 = tested on: MDA-MB-435
SN12C renal = tested on: SN12C renal
M14 melanoma = tested on: M14 melanoma
EKVX NSCLC = tested on: EKVX NSCLC
LOX IMVI melanoma = tested on: LOX IMVI melanoma
OVCAR-3 ovarian = tested on: OVCAR-3 ovarian
U251 CNS = tested on: U251 CNS
HOP-92 NSCLC = tested on: HOP-92 NSCLC
UO-31 renal = tested on: UO-31 renal
HT29 colon = tested on: HT29 colon
CAKI-1 renal = tested on: CAKI-1 renal
OVCAR-8 ovarian = tested on: OVCAR-8 ovarian
DU-145 prostate = tested on: DU-145 prostate
RXF 393 renal = tested on: RXF 393 renal
IGROV1 ovarian = tested on: IGROV1 ovarian
KM12 colon = tested on: KM12 colon
PC-3 prostate = tested on: PC-3 prostate
CCRF-CEM leukemia = tested on: CCRF-CEM leukemia
K-562 leukemia = tested on: K-562 leukemia
UACC-62 melanoma = tested on: UACC-62 melanoma
SK-MEL-2 melanoma = tested on: SK-MEL-2 melanoma
HCC-2998 colon = tested on: HCC-2998 colon
HL-60(TB) leukemia = tested on: HL-60(TB) leukemia
MCF7 breast = tested on: MCF7 breast
SR leukemia = tested on: SR leukemia
HS 578T breast = tested on: HS 578T breast

Cc1cnc(Cl)nc1C(C#N)c1nc2ccccc2s1 (configuration not stated)
TGI (NCI-H460 lung): > 100 µM
TGI (HOP-62 NSCLC): 54.6 µM
TGI (ACHN renal): 42.2 µM
TGI (HCT-15 colon): > 100 µM
TGI (T-47D breast): > 100 µM
TGI (SNB-75 CNS): 53.5 µM
TGI (SF-295 CNS): 62.2 µM
TGI (UACC-257 melanoma): > 100 µM
TGI (786-0 renal): 38.3 µM
TGI (MOLT-4 leukemia): > 100 µM
TGI (COLO 205 colon): 28.5 µM
TGI (SK-OV-3 ovarian): 87.2 µM
TGI (NCI-H23 lung): 40.8 µM
TGI (TK-10 renal): 78.4 µM
TGI (NCI/ADR-RES ovarian): 89.2 µM
TGI (A549 NSCLC): > 100 µM
TGI (OVCAR-4 ovarian): > 100 µM
TGI (OVCAR-5 ovarian): 80.4 µM
TGI (SF-268 CNS): 87.8 µM
TGI (SNB-19 CNS): > 100 µM
TGI (SF-539 CNS): 63.8 µM
TGI (MALME-3M melanoma): 46 µM
TGI (HCT-116 colon): 38.2 µM
TGI (BT-549 breast): 51.2 µM
TGI (MDA-MB-231 breast): > 100 µM
TGI (SW-620 colon): > 100 µM
TGI (MDA-N): 68.1 µM
TGI (A498 renal): 84.2 µM
TGI (SK-MEL-5 melanoma): 20.1 µM
TGI (RPMI-8226 leukemia): > 100 µM
TGI (SK-MEL-28 melanoma): > 100 µM
TGI (NCI-H226 lung): 84.5 µM
TGI (NCI-H522 lung): 16.4 µM
TGI (MDA-MB-435): > 100 µM
TGI (SN12C renal): 63.2 µM
TGI (M14 melanoma): > 100 µM
TGI (EKVX NSCLC): > 100 µM
TGI (LOX IMVI melanoma): 50.7 µM
TGI (OVCAR-3 ovarian): > 100 µM
TGI (U251 CNS): > 100 µM
TGI (HOP-92 NSCLC): 35.4 µM
TGI (UO-31 renal): > 100 µM
TGI (HT29 colon): > 100 µM
TGI (CAKI-1 renal): 73.4 µM
TGI (OVCAR-8 ovarian): > 100 µM
TGI (DU-145 prostate): > 100 µM
TGI (RXF 393 renal): 48.1 µM
TGI (IGROV1 ovarian): > 100 µM
TGI (KM12 colon): > 100 µM

COCCCN(Cc1cc(OC)c(OC)c(OC)c1)C(=S)Nc1cccc(Cl)c1
TGI (PC-3 prostate): 68.2 µM
TGI (NCI-H460 lung): > 100 µM
TGI (HOP-62 NSCLC): > 100 µM
TGI (CCRF-CEM leukemia): 55.7 µM
TGI (ACHN renal): > 100 µM
TGI (HCT-15 colon): 61.1 µM
TGI (T-47D breast): 49.2 µM
TGI (SNB-75 CNS): 70.7 µM
TGI (SF-295 CNS): > 100 µM
TGI (UACC-257 melanoma): 48.5 µM
TGI (786-0 renal): 85.4 µM
TGI (MOLT-4 leukemia): 33.1 µM
TGI (COLO 205 colon): > 100 µM
TGI (SK-OV-3 ovarian): > 100 µM
TGI (TK-10 renal): > 100 µM
TGI (NCI/ADR-RES ovarian): 63.1 µM
TGI (A549 NSCLC): > 100 µM
TGI (OVCAR-4 ovarian): 91.4 µM
TGI (OVCAR-5 ovarian): 75.1 µM
TGI (SF-268 CNS): 63.6 µM
TGI (SNB-19 CNS): > 100 µM
TGI (K-562 leukemia): 69.2 µM
TGI (SF-539 CNS): > 100 µM
TGI (HCT-116 colon): 45.1 µM
TGI (BT-549 breast): 64.9 µM
TGI (UACC-62 melanoma): 44.7 µM
TGI (MDA-MB-231 breast): 83.5 µM
TGI (SW-620 colon): > 100 µM
TGI (MDA-N): 45.7 µM
TGI (A498 renal): > 100 µM
TGI (SK-MEL-5 melanoma): 30 µM
TGI (RPMI-8226 leukemia): 37.4 µM
TGI (SK-MEL-28 melanoma): 85.1 µM
TGI (SK-MEL-2 melanoma): 52.1 µM
TGI (HCC-2998 colon): > 100 µM
TGI (MDA-MB-435): 48.4 µM
TGI (HL-60(TB) leukemia): 45.4 µM
TGI (SN12C renal): 92.5 µM
TGI (M14 melanoma): 51.8 µM
TGI (EKVX NSCLC): 52.4 µM
TGI (LOX IMVI melanoma): 51.1 µM
TGI (OVCAR-3 ovarian): > 100 µM
TGI (U251 CNS): > 100 µM
TGI (HOP-92 NSCLC): 53.7 µM
TGI (UO-31 renal): 90.5 µM
TGI (HT29 colon): 50.2 µM
TGI (CAKI-1 renal): > 100 µM
TGI (OVCAR-8 ovarian): 72.7 µM
TGI (MCF7 breast): 62.1 µM
TGI (DU-145 prostate): > 100 µM
TGI (RXF 393 renal): 96.4 µM
TGI (IGROV1 ovarian): > 100 µM
TGI (KM12 colon): 67.6 µM

O=C(CN1CCN(c2ccccc2)CC1)c1ccc2[nH]c(=O)oc2c1
TGI (SR leukemia): > 100 µM
TGI (PC-3 prostate): > 100 µM
TGI (NCI-H460 lung): > 100 µM
TGI (HOP-62 NSCLC): > 100 µM
TGI (CCRF-CEM leukemia): > 100 µM
TGI (ACHN renal): > 100 µM
TGI (HCT-15 colon): > 100 µM
TGI (SNB-75 CNS): > 100 µM
TGI (SF-295 CNS): > 100 µM
TGI (UACC-257 melanoma): > 100 µM
TGI (786-0 renal): > 100 µM
TGI (MOLT-4 leukemia): > 100 µM
TGI (COLO 205 colon): > 100 µM
TGI (SK-OV-3 ovarian): > 100 µM
TGI (NCI-H23 lung): > 100 µM
TGI (TK-10 renal): > 100 µM
TGI (NCI/ADR-RES ovarian): > 100 µM
TGI (OVCAR-5 ovarian): > 100 µM
TGI (SF-268 CNS): > 100 µM
TGI (HS 578T breast): > 100 µM
TGI (K-562 leukemia): > 100 µM
TGI (SF-539 CNS): > 100 µM
TGI (MALME-3M melanoma): > 100 µM
TGI (HCT-116 colon): > 100 µM
TGI (BT-549 breast): > 100 µM
TGI (UACC-62 melanoma): > 100 µM
TGI (MDA-MB-231 breast): > 100 µM
TGI (SW-620 colon): > 100 µM
TGI (MDA-N): > 100 µM
TGI (A498 renal): > 100 µM
TGI (RPMI-8226 leukemia): > 100 µM
TGI (SK-MEL-28 melanoma): > 100 µM
TGI (NCI-H226 lung): > 100 µM
TGI (SK-MEL-2 melanoma): > 100 µM
TGI (MDA-MB-435): > 100 µM
TGI (HL-60(TB) leukemia): > 100 µM
TGI (SN12C renal): > 100 µM
TGI (M14 melanoma): > 100 µM
TGI (EKVX NSCLC): > 100 µM
TGI (LOX IMVI melanoma): > 100 µM
TGI (OVCAR-3 ovarian): > 100 µM
TGI (U251 CNS): > 100 µM
TGI (HT29 colon): > 100 µM
TGI (CAKI-1 renal): > 100 µM
TGI (OVCAR-8 ovarian): > 100 µM
TGI (MCF7 breast): > 100 µM
TGI (DU-145 prostate): > 100 µM
TGI (RXF 393 renal): > 100 µM
TGI (IGROV1 ovarian): > 100 µM
TGI (KM12 colon): > 100 µM
